Assay results reported in article PMC9496400, “Structural Comparison of hMDH2 Complexed with Natural Substrates and Cofactors: The Importance of Phosphate Binding for Active Conformation and Catalysis” (Biomolecules, 2022).
Blank lines part the entries; values can stand above or below the compound they belong to.

Experiments:
Format in all cases: binding
[1] = molecular target: T1, human mitochondrial malate dehydrogenase (hMDH2) (Homo sapiens, UniProt P40926); assay: crystal structure of the ternary complex with NADH ([…] Å)
T1 construct: gene MDH2
T1 sequence (P40926 19-338): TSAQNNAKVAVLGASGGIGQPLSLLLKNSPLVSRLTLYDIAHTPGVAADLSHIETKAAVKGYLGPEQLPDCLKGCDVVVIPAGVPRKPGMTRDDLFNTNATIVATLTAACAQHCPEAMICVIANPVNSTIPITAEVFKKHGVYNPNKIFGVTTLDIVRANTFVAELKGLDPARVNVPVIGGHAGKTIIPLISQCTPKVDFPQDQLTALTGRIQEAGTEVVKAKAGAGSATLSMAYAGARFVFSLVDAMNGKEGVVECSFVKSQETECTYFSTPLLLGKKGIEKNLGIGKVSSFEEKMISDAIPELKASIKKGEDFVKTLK

[2] = molecular target: T1, human mitochondrial malate dehydrogenase (hMDH2); assay: crystal structure ([…] Å)
[3] = molecular target: T1, human mitochondrial malate dehydrogenase (hMDH2); assay: crystal structure ([…] Å; also with NAD, 4WLU, […] Å)
[4] = molecular target: T1, human mitochondrial malate dehydrogenase (hMDH2); assay: crystal structure ([…] Å); competitive replacement ITC with NADH
[5] = molecular target: T1, human mitochondrial malate dehydrogenase (hMDH2); assay: ITC direct titration; crystal structure with oxaloacetate
[6] = molecular target: T1, human mitochondrial malate dehydrogenase (hMDH2); assay: crystal structure ([…] Å); enzyme activity increased by phosphate

SMILES: O=C(O)CC(=O)C(=O)O [oxaloacetate]
crystal structure of the ternary complex with NADH (2.50 Å) [1]: Arg104 paired with only one oxygen atom of oxaloacetate

SMILES: O=C(O)CC(O)(CC(=O)O)C(=O)O [citrate]
crystal structure (1.90 Å) [2]: The citrate occupied the substrate binding site in the refined structure.

SMILES: O=C(O)C[C@H](O)C(=O)O [L-malate]
crystal structure (2.20 Å; also with NAD, 4WLU, 2.14 Å) [3]: Both L-malate and citrate bound in the same site of hMDH2 and formed hydrogen bonds with the surrounding residues

Kd [4]: 2310 µM
SMILES: NC(=O)c1ccc[n+]([C@@H]2O[C@H](COP(=O)([O-])OP(=O)(O)OC[C@H]3O[C@@H](n4cnc5c(N)ncnc54)[C@H](O)[C@@H]3O)[C@@H](O)[C@H]2O)c1 [NAD]

Kd [5]: 3.05 µM
SMILES: NC(=O)C1=CN([C@@H]2O[C@H](COP(=O)(O)OP(=O)(O)OC[C@H]3O[C@@H](n4cnc5c(N)ncnc54)[C@H](O)[C@@H]3O)[C@@H](O)[C@H]2O)C=CC1 [NADH]

SMILES: O=P(O)(O)O [phosphate]
crystal structure (2.28 Å); enzyme activity increased by phosphate [6]: two phosphate ions were located in the substrate binding site and a third in the position of the ribose ring
